{
  "source": "patent US8592174B2",
  "about": "“Peptidase substrates” (bioMérieux, S.A., priority 2009, dated 2013)",
  "type_in_all_cases": "cell-based",
  "key": {"[1]": {"tested_on": "Enterobacter sakazakii 05 01 020", "test": "pH variation detection on modified chromID Coli medium (Example 6)", "details": "50 mg/l, 24 h 37° C.", "method": "(§1) The media were incubated for 24 hours at 37° C., then the spots formed were examined visually."}, "[2]": {"tested_on": "Pectobacterium atrosepticum 80 12 075", "test": "pH variation detection on modified chromID Coli medium (Example 6)", "details": "50 mg/l, 24 h 37° C.", "method": "as §1"}, "[3]": {"tested_on": "Pseudomonas aeruginosa 89 09 041", "test": "pH variation detection on modified chromID Coli medium (Example 6)", "details": "50 mg/l, 24 h 37° C.", "method": "as §1"}, "[4]": {"tested_on": "Buttiauxella agrestis 05 04 166", "test": "pH variation detection on modified chromID Coli medium (Example 6)", "design": "Coloration strength: key to the marks not given beside the values", "details": "50 mg/l, 24 h 37° C.", "method": "as §1"}, "[5]": {"tested_on": "Salmonella ser. Enteritidis 94 06 001", "test": "pH variation detection on modified chromID Coli medium (Example 6)", "design": "Coloration strength: key to the marks not given beside the values", "details": "50 mg/l, 24 h 37° C.", "method": "as §1"}, "[6]": {"tested_on": "Citrobacter braakii 05 06 109", "test": "pH variation detection on modified chromID Coli medium (Example 6)", "design": "Coloration strength: key to the marks not given beside the values", "details": "50 mg/l, 24 h 37° C.", "method": "as §1"}, "[7]": {"tested_on": "Escherichia vulneris 85 06 777", "test": "pH variation detection on modified chromID Coli medium (Example 6)", "design": "Coloration strength: key to the marks not given beside the values", "details": "50 mg/l, 24 h 37° C.", "method": "as §1"}, "[8]": {"tested_on": "Leclercia adecarboxylata 97 04 041", "test": "pH variation detection on modified chromID Coli medium (Example 6)", "design": "Coloration strength: key to the marks not given beside the values", "details": "50 mg/l, 24 h 37° C.", "method": "as §1"}, "[9]": {"tested_on": "Proteus vulgaris 04 05 062", "test": "pH variation detection on modified chromID Coli medium (Example 6)", "design": "Coloration strength: key to the marks not given beside the values", "details": "50 mg/l, 24 h 37° C.", "method": "as §1"}, "[10]": {"tested_on": "E. coli 77 05 035", "test": "pH variation detection on modified chromID Coli medium (Example 6)", "design": "Coloration strength: key to the marks not given beside the values", "details": "50 mg/l, 24 h 37° C.", "method": "as §1"}, "[11]": {"tested_on": "Yersinia enterocolitica 05 04 143", "test": "pH variation detection on modified chromID Coli medium (Example 6)", "design": "Coloration strength: key to the marks not given beside the values", "details": "50 mg/l, 24 h 37° C.", "method": "as §1"}, "[12]": {"tested_on": "Kluyvera ascorbata 84 08 084", "test": "pH variation detection on modified chromID Coli medium (Example 6)", "design": "Coloration strength: key to the marks not given beside the values", "details": "50 mg/l, 24 h 37° C.", "method": "as §1"}, "[13]": {"tested_on": "Shigella spp 76 02 055", "test": "pH variation detection on modified chromID Coli medium (Example 6)", "design": "Coloration strength: key to the marks not given beside the values", "details": "50 mg/l, 24 h 37° C.", "method": "as §1"}, "[14]": {"tested_on": "Enterobacter intermedius 05 04 110", "test": "pH variation detection on modified chromID Coli medium (Example 6)", "design": "Coloration strength: key to the marks not given beside the values", "details": "50 mg/l, 24 h 37° C.", "method": "as §1"}, "[15]": {"tested_on": "Raoultella ornithinolytica 05 04 140", "test": "pH variation detection on modified chromID Coli medium (Example 6)", "design": "Coloration strength: key to the marks not given beside the values", "details": "50 mg/l, 24 h 37° C.", "method": "as §1"}, "[16]": {"tested_on": "Shigella boydii 00 04 212", "test": "pH variation detection on modified chromID Coli medium (Example 6)", "design": "Coloration strength: key to the marks not given beside the values", "details": "50 mg/l, 24 h 37° C.", "method": "as §1"}, "[17]": {"tested_on": "Klebsiella pneumoniae ssp pneumoniae 73 08 012", "test": "pH variation detection on modified chromID Coli medium (Example 6)", "design": "Coloration strength: key to the marks not given beside the values", "details": "50 mg/l, 24 h 37° C.", "method": "as §1"}, "[18]": {"tested_on": "Salmonella spp 93 03 001", "test": "pH variation detection on modified chromID Coli medium (Example 6)", "design": "Coloration strength: key to the marks not given beside the values", "details": "50 mg/l, 24 h 37° C.", "method": "as §1"}, "[19]": {"tested_on": "Citrobacter koseri 75 08 021", "test": "pH variation detection on modified chromID Coli medium (Example 6)", "design": "Coloration strength: key to the marks not given beside the values", "details": "50 mg/l, 24 h 37° C.", "method": "as §1"}, "[20]": {"tested_on": "E. coli 05 06 052", "test": "pH variation detection on modified chromID Coli medium (Example 6)", "design": "Coloration strength: key to the marks not given beside the values", "details": "50 mg/l, 24 h 37° C.", "method": "as §1"}, "[21]": {"tested_on": "Candida glabrata NCPF 3 943", "test": "Peptidase detection on Columbia medium (Example 2)", "design": "key to Growth: NG: No growth; 0.5: weak growth; 1: moderate growth; 2: good growth; key to Fluo. / Color / Color post-acid.: —: no color", "details": "40 mg in 400 ml Columbia; 24 h 37° C.", "description": "(§2) The 6 media were distributed into Petri dishes 90 mm in diameter, in a proportion of 20 ml per dish.\n(§3) Seventeen strains of microorganisms stemming from collections and belonging to various species of bacteria and yeasts are inoculated in spots of approximately 10 000 colony-forming units.\n(§4) The media are incubated for 24 hours at 37° C., and then the colonies formed are examined visually, with or without the addition of acid and under a UV lamp at 365 nm."}, "[22]": {"tested_on": "Listeria monocytogenes NCTC 11 994", "test": "Peptidase detection on Columbia medium (Example 2)", "design": "key to Growth: NG: No growth; 0.5: weak growth; 1: moderate growth; 2: good growth; key to Fluo. / Color / Color post-acid.: —: no color", "details": "40 mg in 400 ml Columbia; 24 h 37° C.", "description": "as §2, §3, §4"}, "[23]": {"tested_on": "Streptococcus pyogenes NCTC 8 306", "test": "Peptidase detection on Columbia medium (Example 2)", "design": "key to Growth: NG: No growth; 0.5: weak growth; 1: moderate growth; 2: good growth", "details": "40 mg in 400 ml Columbia; 24 h 37° C.", "description": "as §2, §3, §4"}},
  "data": [
    {"molecule": "Nc1ccc(C=Cc2ccnc3ccccc23)cc1", "values": [
      {"measurement": "Coloration strength", "setting": "[1]", "result": "−"},
      {"measurement": "Growth", "setting": "[1]; control C: ++", "result": "++"},
      {"measurement": "Coloration strength", "setting": "[2]", "result": "−"},
      {"measurement": "Growth", "setting": "[2]; control C: −", "result": "−"},
      {"measurement": "Coloration strength", "setting": "[3]", "result": "−"},
      {"measurement": "Growth", "setting": "[3]; control C: ++", "result": "+"},
      {"measurement": "Color", "setting": "[4]", "result": "Orange"},
      {"measurement": "Coloration strength", "setting": "[4]", "result": "++"},
      {"measurement": "Growth", "setting": "[4]; control C: ++", "result": "++"},
      {"measurement": "Color", "setting": "[5]", "result": "Orange"},
      {"measurement": "Coloration strength", "setting": "[5]", "result": "++"},
      {"measurement": "Growth", "setting": "[5]; control C: ++", "result": "++"},
      {"measurement": "Color", "setting": "[6]", "result": "Orange"},
      {"measurement": "Coloration strength", "setting": "[6]", "result": "++"},
      {"measurement": "Growth", "setting": "[6]; control C: ++", "result": "++"},
      {"measurement": "Color", "setting": "[7]", "result": "Orange"},
      {"measurement": "Coloration strength", "setting": "[7]", "result": "++"},
      {"measurement": "Growth", "setting": "[7]; control C: ++", "result": "++"},
      {"measurement": "Color", "setting": "[8]", "result": "Orange"},
      {"measurement": "Coloration strength", "setting": "[8]", "result": "++"},
      {"measurement": "Growth", "setting": "[8]; control C: ++", "result": "++"},
      {"measurement": "Color", "setting": "[9]", "result": "Orange"},
      {"measurement": "Coloration strength", "setting": "[9]", "result": "++"},
      {"measurement": "Growth", "setting": "[9]; control C: ++", "result": "++"},
      {"measurement": "Color", "setting": "[10]", "result": "Orange"},
      {"measurement": "Coloration strength", "setting": "[10]", "result": "++"},
      {"measurement": "Growth", "setting": "[10]; control C: ++", "result": "++"},
      {"measurement": "Color", "setting": "[11]", "result": "Orange"},
      {"measurement": "Coloration strength", "setting": "[11]", "result": "++"},
      {"measurement": "Growth", "setting": "[11]; control C: ++", "result": "+"},
      {"measurement": "Color", "setting": "[12]", "result": "Orange"},
      {"measurement": "Coloration strength", "setting": "[12]", "result": "++"},
      {"measurement": "Growth", "setting": "[12]; control C: ++", "result": "++"},
      {"measurement": "Color", "setting": "[13]", "result": "Orange"},
      {"measurement": "Coloration strength", "setting": "[13]", "result": "++"},
      {"measurement": "Growth", "setting": "[13]; control C: ++", "result": "++"},
      {"measurement": "Color", "setting": "[14]", "result": "Orange"},
      {"measurement": "Coloration strength", "setting": "[14]", "result": "++"},
      {"measurement": "Growth", "setting": "[14]; control C: ++", "result": "+"},
      {"measurement": "Color", "setting": "[15]", "result": "Orange"},
      {"measurement": "Coloration strength", "setting": "[15]", "result": "++"},
      {"measurement": "Growth", "setting": "[15]; control C: ++", "result": "++"},
      {"measurement": "Color", "setting": "[16]", "result": "Orange"},
      {"measurement": "Coloration strength", "setting": "[16]", "result": "++"},
      {"measurement": "Growth", "setting": "[16]; control C: ++", "result": "++"},
      {"measurement": "Color", "setting": "[17]", "result": "Orange"},
      {"measurement": "Coloration strength", "setting": "[17]", "result": "++"},
      {"measurement": "Growth", "setting": "[17]; control C: ++", "result": "++"},
      {"measurement": "Color", "setting": "[18]", "result": "Orange"},
      {"measurement": "Coloration strength", "setting": "[18]", "result": "++"},
      {"measurement": "Growth", "setting": "[18]; control C: ++", "result": "++"},
      {"measurement": "Color", "setting": "[19]", "result": "Orange"},
      {"measurement": "Coloration strength", "setting": "[19]", "result": "++"},
      {"measurement": "Growth", "setting": "[19]; control C: ++", "result": "++"},
      {"measurement": "Color", "setting": "[20]", "result": "Orange"},
      {"measurement": "Coloration strength", "setting": "[20]", "result": "++"},
      {"measurement": "Growth", "setting": "[20]; control C: ++", "result": "++"}
    ]},
    {"molecule": "C[C@H](N)C(=O)N[C@@H](C)C(=O)N[C@@H](C)C(=O)Nc1ccc(C=Cc2cc[n+](C)c3ccccc23)cc1.Cl.[Cl-]", "note": "[Tri-Ala-ASQM^+, L-alanyl-L-alanyl-L-alanyl-4-(4′-amidostyryl)-N-methylquinolinium (dichloride)]", "values": [
      {"measurement": "Color", "setting": "[21]", "result": "—"},
      {"measurement": "Growth", "setting": "[21]", "result": 2},
      {"measurement": "Color", "setting": "[22]", "result": "—"},
      {"measurement": "Growth", "setting": "[22]", "result": 2},
      {"measurement": "Growth", "setting": "[23]", "result": 2}
    ]}
  ]
}
